Patent US9834549B2, “3,3-disubstituted-(8-aza-bicyclo[3.2.1]OCT-8-yl)-[5-(1H-pyrazol-4-yl)-thiophen-3-yl]-methanones as inhibitors of 11 (β)-HSD1” (The University Of Edinburgh, priority 2010, dated 2017)
Where two headings read alike, the source gives them in different places.

Tests used:
human 11β-HSD1 = molecular target: T1, human 11β-HSD1 (Homo sapiens, UniProt P28845); test: Cellular in vitro 11β-HSD1 enzyme inhibition assay (SPA, HEK293/11β-HSD1 cells); type: cell-based
T1 construct: stably transfected with a construct containing the full-length gene coding for the human 11β-HSD1 enzyme; expressed in transfected cells; host or cells: HEK293 (stably transfected, HEK293/11β-HSD1)
T1 sequence (P28845 whole entry): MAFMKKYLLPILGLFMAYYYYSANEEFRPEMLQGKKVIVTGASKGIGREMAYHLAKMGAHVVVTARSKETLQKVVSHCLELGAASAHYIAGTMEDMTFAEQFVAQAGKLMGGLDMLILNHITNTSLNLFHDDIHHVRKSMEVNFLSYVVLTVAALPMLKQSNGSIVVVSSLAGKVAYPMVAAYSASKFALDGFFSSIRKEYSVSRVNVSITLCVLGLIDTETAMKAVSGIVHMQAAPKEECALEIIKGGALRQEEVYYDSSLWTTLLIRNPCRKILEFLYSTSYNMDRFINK
Procedure: Compounds were assessed by a Scintillation Proximity Assay (SPA) performed according to the following protocol:
HEK293 cells were stably transfected with a construct containing the full-length gene coding for the human 11β-HSD1 enzyme to create HEK293/11β-HSD1 cells. Cells were routinely cultured in DMEM containing 10% calf foetal serum, 1% glutamine, and 1% penicillin and streptomycin. Prior to assay, cells were plated at 2×10^4 cells/well in 96-well poly-D-Lys coated flat-bottomed microplates and incubated in 5% CO2, 95% O2 at 37° C. for 24 hours. The media in each well was removed immediately before assay.
Compounds to be tested were dissolved in DMSO at 10 mM and serially diluted into water containing 10% DMSO. Diluted compounds at a volume of 10 μL were added to wells of a 96-well V-bottomed microplate. A solution of DMEM, 1% glutamine, 1% penicillin and streptomycin, and 22 nM tritiated cortisone was prepared and 90 μL added to each well of the assay plate. This solution (100 μL/well) was transferred to the plate containing the cells. The plate was then incubated in 5% CO2, 95% O2 at 37° C. for 2 hours.
Following this incubation, 50 μL of the assay solution was transferred to each well of a 96-well scintillation microplate. A mixture consisting of anti-mouse YSi SPA beads, pre-mixed with anti-cortisol antibody in assay buffer (50 mM Tris.HCl, pH 7.0; 300 mM NaCl; 1 mM EDTA, 5% glycerol) was prepared and 50 μL added to each well of the scintillation microplate. An adhesive strip was applied to the microplate and the plate gently shaken for at least 2 hours at room temperature, and then spun briefly on a low speed centrifuge. The plate was read on a scintillation counter suitable for 96-well microplates. For the calculation of percentage inhibition, a series of wells were added to the plate that represented the assay maximum and the assay minimum: one set that contained substrate without cells (minimum) and another set that contained substrate and cells without any compound (maximum).
The calculation of median inhibitory concentration (IC50) values for the compounds was performed using GraphPad Prism® software. Dose-response curves for each compound were plotted as fractional inhibition and data fitted to the four parameter logistic equation.

human 11β-HSD2 = molecular target: T2, human 11β-HSD2 (Homo sapiens, UniProt P80365); test: Cellular in vitro 11β-HSD2 enzyme inhibition assay (CHO cells); type: cell-based; settings: CHO cells transfected with human 11β-HSD2
T2 construct: CHO cells stably transfected with the full-length gene coding for human 11β-HSD2 were used; expressed in transfected cells; host or cells: CHO (stably transfected)
T2 sequence (P80365 1-405): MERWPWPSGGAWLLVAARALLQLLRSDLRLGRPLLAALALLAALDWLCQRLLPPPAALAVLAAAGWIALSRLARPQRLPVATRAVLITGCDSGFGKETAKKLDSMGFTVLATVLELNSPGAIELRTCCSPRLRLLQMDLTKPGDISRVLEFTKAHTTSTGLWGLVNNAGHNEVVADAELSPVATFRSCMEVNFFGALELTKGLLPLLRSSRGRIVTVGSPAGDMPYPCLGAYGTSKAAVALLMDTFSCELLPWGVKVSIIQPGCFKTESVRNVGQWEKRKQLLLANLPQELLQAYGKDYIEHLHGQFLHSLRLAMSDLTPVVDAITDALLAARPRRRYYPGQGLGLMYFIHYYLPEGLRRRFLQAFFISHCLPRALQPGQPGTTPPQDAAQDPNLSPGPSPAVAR
Procedure: For measurement of inhibition of 11β-HSD2, CHO cells stably transfected with the full-length gene coding for human 11β-HSD2 were used. Assays were carried out in 96-well microplates containing 1×10^5 cells/well. Controls and compounds were plated as above, so that the final DMSO concentration in each well was 1%. To initiate the assay, 90 μL of a solution of HAMS F-12 medium containing 1% glutamine, 1% penicillin and streptomycin, and 22 nM tritiated cortisol was added to each well of the assay plate. The plate was then incubated in 5% CO2, 95% O2 at 37° C. for 16 hours.
The assay solutions were transferred to glass tubes and […] added to each tube. Each tube was vortexed thoroughly and the upper layer containing the tritiated steroid transferred to a fresh glass tube. The solvent was evaporated by placing the tubes in a heating block at 65° C. under a stream of nitrogen gas. 20 μL ethanol was added to each of the dried samples and vortexed briefly. Each sample was applied to a silica TLC plate and the plate dried. The plate was placed vertically in a glass tank containing 92% chloroform: 8% ethanol and the solvent allowed to rise up the plate. The plate was dried, placed in an imaging cassette, and overlayed with a tritium imaging plate for 1-2 days. The amount of enzyme inhibition in each sample was determined by measuring the intensity of the substrate and product spots using a phospho-imager. IC50 values for inhibitors were determined as described above for 11β-HSD1.

[1] = In vitro human liver microsomal stability assay; type: in vitro ADME; settings: human liver microsomes
Procedure: To predict in vivo metabolism of compounds, the stability of compounds incubated with human liver microsomes in vitro was determined. Human liver microsome preparations were stored at −80° C. and thawed on ice prior to use. The thawed microsomes were diluted to a concentration of 2 mg/mL in 50 mM sodium phosphate, pH 7.4. Reference and test compounds were prepared as 10 mM stocks in 100% DMSO and diluted to 1 mM in acetonitrile before use. Each compound was tested in triplicate as follows:
4 μL of test or reference compound was added to a well of a 24-well microplate and 0.5 mL of 4 mM NADPH added. The plate was then transferred to a shaker for 10 minutes at room temperature. 30 μL of the compound/NADPH solution was transferred to the well of a 96-well microplate and incubated at 37° C. for 5 minutes. 30 μL of human liver microsomes (pre-incubated at 37° C. for 5 minutes) was added to the well containing the compound/NADPH solution and the plate incubated for the selected period of time (typically 0 or 30 minutes). The reaction was stopped by adding 60 μL of ice cold […] trichloroacetic acid. The plate was centrifuged at 1000 rpm for 5 minutes at room temperature and the supernatant transferred to the well of a new 96-well V-bottomed microplate for mass spectrometric analysis.
Samples were analyzed by TSQ Quantum Discovery Tandem Mass Spectrometer and Surveyor Liquid Chromatogram (Thermo, Hemel-Hempstead, UK). 10 μL of each sample was injected in a mobile phase consisting of 60%:40% methanol:5 mM ammonium acetate at a flow rate of 0.5 mL/minute. The column used was a BDS hypersil, C18, 50×2.1 mm with a 5 μm particle size.
Each compound was tuned with a spray voltage of 3000 V and a capillary temperature of 300° C. and values for tube lens, CID and product ions were determined.
The peak area for each compound was measured in triplicate for the 0 and 30 minute samples and the average of each was reported. The percentage remaining after 30 minutes was calculated as the average peak area of the sample after 30 minutes divided by the average peak area at 0 minutes. The RSD was 10% or lower for each compound.

[2] = HEK293, potency groups, read-out: IC50 for 11β-HSD1 (HEK293)
[3] = HEK293 cells transfected with human 11β-HSD1, first value in cell, read-out: IC50 for 11β-HSD1 (HEK293)
[4] = HEK293 cells, value marked * in brackets, read-out: IC50 for 11β-HSD1 (HEK293), (*) average of at least two individual experiments

Row | Structure (SMILES) | IC50 (human 11β-HSD1; [2]) | IC50 (human 11β-HSD1; [3]) | IC50 (human 11β-HSD1; [4]) | IC50 (human 11β-HSD2) | % Parent Remaining at 30 min [1]
1 | O=C(c1csc(-c2cn[nH]c2)c1)N1C2CCC1CC(O)(c1ncccn1)C2 (stereo not shown) [XX-20, (3-Hydroxy-3-pyrimidin-2-yl-8-aza-bicyclo[3.2.1]oct-8-yl)-[5-(1H-pyrazol-4-yl)-thiophen-3-yl]-methanone] | ≤ 0.1 µM | 0.067 µM | 0.042 µM | > 10 µM | +++ (61-100% +++)
2 | O=C(c1csc(-c2cn[nH]c2)c1)N1C2CCC1CC(O)(c1nccs1)C2 (stereo not shown) [XX-29] | ≤ 0.1 µM | 0.033 µM | 0.031 µM | > 10 µM | +++ (61-100% +++)
